Source: patent publication US6608032B1, “Medicinal compositions” (Takara Shuzo Co., Ltd., priority 1999, dated 2003)

What was measured:
RAW264.7 cells = experiment: LPS-induced IL-10 production in RAW264.7 cells; assay type: cell-based; conditions: 5 μl of 10 mM solution per 0.5 ml, 5 hours before LPS; 18 hours; FIG. 18
Protocol: RAW264.7 cells (ATCC TIB 71) were suspended in Dulbecco's modified Eagle's medium (Bio Whittaker, 12-604F) containing 10% fetal calf serum (Gibco) at a concentration of 3×10^5 cells/ml. 0.5 ml of the suspension was added to each well of a 48-well microtiter plate and the plate was incubated at 37° C. overnight in the presence of 5% CO2. 5 μl of a solution containing agarobiose or agarohexaose in Referential Example 1 at a concentration of 10 mM in water was added to the well. After incubation for additional 5 hours, 5 μl of a solution of lipopolysaccharide (LPS, Sigma, L-2012) at a concentration of 100 μg/ml in water was added the well. After incubation for 18 hours, a culture supernatant was collected. The content of interleukin 10 (IL-10) in the culture supernatant was measured using enzyme immuno sandwich assay. As a control, a group to which the sample or the LPS aqueous solution was not added was provided. All of the measurements were carried out in duplicate.

heme oxygenase 1 protein = experiment: Heme oxygenase 1 induction in RAW264.7 cells (Western blot); assay type: cell-based; parameters: key: − represents no band observed; increase in the intensity of the band is represented as follows:+−<+<++; increase in the intensity of the band is represented as follows:+−<+<++; increase in the intensity of the band is represented as follows:+−<+<++; conditions: 15 hours
Protocol: RAW264.7 cells (ATCC TIB 71) were suspended in Dulbecco's modified Eagle's medium (Bio Whittaker, 12-604F) containing 10% fetal calf serum (Gibco) at a concentration of 3×10^5 cells/ml. 5 ml of the suspension was added to each well of a 6-well microtiter plate and the plate was incubated at 37° C. overnight in the presence of 5% CO2. 50 μl of a solution containing agarobiose or agarohexaose in Referential Example 1 at a concentration of 20 mM, 10 mM or 5 mM in water was added to the well. The plate was incubated for 15 hours. A positive control for heme oxygenase 1 induction in which 5 μl of 3 mM solution of 15-deoxy-Δ12,14 prostaglandin J2 (Cayman Chemical, 18570) in dimethyl sulfoxide was added, and a negative control in which water was added were provided. The cells were recovered by detaching the cells from the plate using a scraper and suspended in 0.1 M tris-HCl buffer (pH 7.5) containing 0.05 mM pepstatin A (Sigma, P5318), 0.2 mM leupeptin (Sigma, L2884), 1 mM phenylmethylsulfonyl fluoride (Nacalai Tesque, 273-27), 10 mm ethylenediaminetetraacetic acid disodium salt and 0.1% Triton X-100. A supernatant obtained by centrifuging the suspension after freezing and thawing was used as a protein fraction. The content of protein in the protein fraction was determined using Micro BCA Protein Assay Reagent (a product of Pierce sold by Takara Shuzo, P7411). A sample from the protein fraction prepared as described above was mixed with an equal volume of 0.125 M tris-hydrochloride buffer (pH 6.8) containing 4% sodium lauryl sulfate (SDS), 2% 2-mercaptoethanol, 0.001% Bromophenol Blue and 20% glycerol. After treatment at 100° C. for 5 minutes, a portion corresponding to 10 μg of protein was loaded on 12.5% SDS-polyacrylamide gel and electrophoresed at a constant current of 20 mA. After electrophoresis, the gel was transferred to a PVDF membrane (Millipore, IPVH000 10) at a constant voltage of 15 V for 25 minutes using a blotting buffer (containing 48 mM tris, 39 mM glycine, 20% methanol and 0.0375% SDS) and Trans-Blot SD Cell Semi-Dry blotting apparatus (Bio-Rad) according to the attached protocol. After transferring, the PVDF membrane was blocked in a solution of Block Ace (Dainippon Pharmaceutical, UK-B25) at 4° C. overnight. After blocking, the membrane washed three times in phosphate buffered saline containing 0.1% Tween 20 for 15 minutes with gentle shaking. The membrane was reacted in phosphate buffered saline containing 10% Block Ace, 0.1% Tween 20 and 200 ng/ml of anti-heme oxygenase 1 antibody (N-19; Santa Cruz, sc-7696) at room temperature for 1 hour with gentle shaking, and then washed three times in phosphate buffered saline containing 0.1% Tween 20 for 15 minutes with gentle shaking. The membrane was reacted in phosphate buffered saline containing 10% Block Ace, 0.1% Tween 20 and 0.1% peroxidase-labeled rabbit anti-goat IgG (H+L) antibody (Zymed, 61-1620) at room temperature for 1 hour with gentle shaking, and then washed five times in phosphate buffered saline containing 0.1% Tween 20 for 15 minutes with gentle shaking. The PVDF membrane was stained using Western Blot Chemiluminescence Reagent Plus (a product of NEN Life Science Products sold by Daiichi Pure Chemicals, NEL103) according to the attached protocol and exposed to an X-ray film (Kodak, CAT165 1454). After exposure, the film was developed using FPM800 (Fuji Film).
The intensity of the band depended on the concentration of agarobiose or agarohexaose. In the table, the intensity of the band for heme oxygenase 1 protein is expressed by the mark+. Specifically, − represents no band observed, and increase in the intensity of the band is represented as follows:+−<+<++.

Compound | LPS-induced IL-10 production (RAW264.7 cells) | Intensity of band for heme oxygenase 1 protein (heme oxygenase 1 protein; final concentration of 50 μM) | Intensity of band for heme oxygenase 1 protein (heme oxygenase 1 protein; final concentration of 100 μM) | Intensity of band for heme oxygenase 1 protein (heme oxygenase 1 protein; final concentration of 200 μM)
OC[C@H]1O[C@@H](O[C@H]2[C@H]3OC[C@@H]2OC(O)[C@H]3O)[C@H](O)[C@@H](O)[C@H]1O (mixture of isomers) [Agarobiose, agarobiose] | inhibition of LPS-induced IL-10 production | +− | + | ++
OCC1OC(OC2C3COC2C(O)C(OC2C(O)C(CO)OC(OC4C5COC4C(O)C(OC4C(O)C(CO)OC(OC6C7COC6C(O)C(O)O7)C4O)O5)C2O)O3)C(O)C(O)C1O (centres unmarked) [Agarohexaose, agarohexaose] | inhibition of LPS-induced IL-10 production | +− | + | ++
